The target of one experiment is T1, BCR-NTRK3 BaF3 cells (Homo sapiens, UniProt Q16288).
T1 construct: fused on or other part: P11274 (Breakpoint cluster region protein)
Briefly: BaF3 BCR-NTRK3 cell proliferation assay (ATPlite). In kind it is cell-based. The settings on record: read-out: Inhibition of Cell Proliferation IC50, BCR/BaF3 TrkC. In a few lines: (§1)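 BaF3 lines were seeded at 10,000 cells/well in growth medium with 1 mg/mL G418 but no IL-3, and MV-4-11 cells at 25,000 cells/well; plates were left overnight at 37 °C. Compounds were added as an 8-point 1:3 series with a top concentration of 10 μM and incubated 3 days. IC50 was taken from ATPlite luminescence.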
For orientation: Cellular ATP, detected with luciferase, serves as a proxy for viable cell number.

Another experiment addresses T2, BCR-NTRK1 BaF3 cells (Homo sapiens, UniProt P04629).
T2 construct: fused on or other part: P11274 (Breakpoint cluster region protein)
The experiment in a line: BaF3 BCR-NTRK1 cell proliferation assay (ATPlite). In kind it is cell-based. As to conditions: read-out: Inhibition of Cell Proliferation IC50, BCR/BaF3 TrkA. In a few lines:
as §1

Molecules are shown by their SMILES.

T2 sequence (P04629 510-781): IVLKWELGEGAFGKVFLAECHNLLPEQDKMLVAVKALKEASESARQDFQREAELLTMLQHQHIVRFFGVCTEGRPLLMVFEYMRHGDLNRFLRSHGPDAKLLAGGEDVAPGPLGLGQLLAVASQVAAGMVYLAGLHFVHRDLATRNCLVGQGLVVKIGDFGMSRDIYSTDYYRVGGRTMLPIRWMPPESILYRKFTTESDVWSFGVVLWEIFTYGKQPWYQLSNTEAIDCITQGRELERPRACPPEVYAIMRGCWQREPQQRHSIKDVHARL
T1 sequence (Q16288 whole entry, the tested form may be a part): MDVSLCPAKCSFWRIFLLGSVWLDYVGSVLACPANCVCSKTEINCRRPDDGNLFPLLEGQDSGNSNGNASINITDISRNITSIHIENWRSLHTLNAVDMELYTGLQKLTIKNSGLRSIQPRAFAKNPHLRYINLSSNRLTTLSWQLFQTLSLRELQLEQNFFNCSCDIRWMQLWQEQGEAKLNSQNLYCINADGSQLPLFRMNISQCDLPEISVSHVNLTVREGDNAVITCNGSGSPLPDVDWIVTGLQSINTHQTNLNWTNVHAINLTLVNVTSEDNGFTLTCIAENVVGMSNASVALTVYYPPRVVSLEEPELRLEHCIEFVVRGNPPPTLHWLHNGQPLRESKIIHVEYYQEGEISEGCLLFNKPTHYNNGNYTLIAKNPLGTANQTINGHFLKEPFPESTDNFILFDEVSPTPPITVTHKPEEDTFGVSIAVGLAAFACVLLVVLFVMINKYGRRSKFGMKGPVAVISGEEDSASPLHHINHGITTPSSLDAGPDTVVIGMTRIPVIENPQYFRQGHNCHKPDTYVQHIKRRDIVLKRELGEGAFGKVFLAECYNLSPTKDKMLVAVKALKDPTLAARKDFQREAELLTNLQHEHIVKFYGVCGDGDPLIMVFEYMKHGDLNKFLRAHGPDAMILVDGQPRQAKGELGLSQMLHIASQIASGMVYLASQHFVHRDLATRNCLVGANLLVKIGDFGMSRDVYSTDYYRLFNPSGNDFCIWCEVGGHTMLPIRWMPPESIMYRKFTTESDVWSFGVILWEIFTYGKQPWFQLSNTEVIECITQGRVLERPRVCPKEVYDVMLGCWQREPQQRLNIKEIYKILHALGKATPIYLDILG

Take `Clc1cnc2[nH]cc(Cc3cnc(NC4CC4)nc3)c2c1` [Compound P-3005, [5-(5-Chloro-1H-pyrrolo[2,3-b]pyridin-3-ylmethyl)-pyrimidin-2-yl]-cyclopropyl-amine]: the IC50 at BCR-NTRK3 BaF3 cells and at BCR-NTRK1 BaF3 cells was greater than 10000 nM in each case.
In the case of `COc1ccccc1Nc1ncc(Cc2c[nH]c3ncc(Cl)cc23)cn1` [Compound P-3016, [5-(5-Chloro-1H-pyrrolo[2,3-b]pyridin-3-ylmethyl)-pyrimidin-2-yl]-(2-methoxy-phenyl)-amine], the IC50 at BCR-NTRK3 BaF3 cells and on BCR-NTRK1 BaF3 cells was greater than 10000 nM in each case.
For the molecule `Fc1cccc(Nc2ncc(Cc3c[nH]c4ncc(Cl)cc34)cn2)c1` [Compound P-3017, [5-(5-Chloro-1H-pyrrolo[2,3-b]pyridin-3-ylmethyl)-pyrimidin-2-yl]-(3-fluoro-phenyl)-amine], the IC50 on BCR-NTRK3 BaF3 cells and on BCR-NTRK1 BaF3 cells was greater than 10000 nM in each case.
As for `COc1ccc(Nc2ncc(Cc3c[nH]c4ncc(C)cc34)cn2)cn1` [Compound P-3020, (6-Methoxy-pyridin-3-yl)-[5-(5-methyl-1H-pyrrolo[2,3-b]pyridin-3-ylmethyl)-pyrimidin-2-yl]-amine], the IC50 at BCR-NTRK3 BaF3 cells and on BCR-NTRK1 BaF3 cells was less than 100 nM throughout.
For `COc1ccc(Nc2ncc(Cc3c[nH]c4ncc(C)cc34)cn2)cc1` [Compound P-3021, (4-Methoxy-phenyl)-[5-(5-methyl-1H-pyrrolo[2,3-b]pyridin-3-ylmethyl)-pyrimidin-2-yl]-amine], the IC50 at BCR-NTRK3 BaF3 cells is less than 100 nM; at BCR-NTRK1 BaF3 cells, less than 1000 nM.
For `COc1cc(Nc2ncc(Cc3c[nH]c4ncc(C)cc34)cn2)ccc1F` [Compound P-3022, (4-Fluoro-3-methoxy-phenyl)-[5-(5-methyl-1H-pyrrolo[2,3-b]pyridin-3-ylmethyl)-pyrimidin-2-yl]-amine], the IC50 at BCR-NTRK3 BaF3 cells and on BCR-NTRK1 BaF3 cells was less than 1000 nM in each case.
For `COc1ccc(Nc2ncc(Cc3c[nH]c4ncc(C)cc34)cn2)cc1F` [Compound P-3023, (3-Fluoro-4-methoxy-phenyl)-[5-(5-methyl-1H-pyrrolo[2,3-b]pyridin-3-ylmethyl)-pyrimidin-2-yl]-amine], the IC50 at BCR-NTRK3 BaF3 cells and at BCR-NTRK1 BaF3 cells was less than 1000 nM throughout.
Regarding `CCCOc1ccc(Nc2ncc(Cc3c[nH]c4ncc(C)cc34)cn2)cc1` [Compound P-3024, [5-(5-Methyl-1H-pyrrolo[2,3-b]pyridin-3-ylmethyl)-pyrimidin-2-yl]-(4-propoxy-phenyl)-amine], the figures for the IC50 on BCR-NTRK3 BaF3 cells and at BCR-NTRK1 BaF3 cells were less than 100 nM and less than 1000 nM, respectively.
Taken in the same sequence, the figures for `CCc1ccc(Nc2ncc(Cc3c[nH]c4ncc(C)cc34)cn2)cc1` [Compound P-3025, (4-Ethyl-phenyl)-[5-(5-methyl-1H-pyrrolo[2,3-b]pyridin-3-ylmethyl)-pyrimidin-2-yl]-amine] were less than 10 nM and less than 10 nM.
`CCOc1ccc(Nc2ncc(Cc3c[nH]c4ncc(C)cc34)cn2)cc1` [Compound P-3026, (4-Ethoxy-phenyl)-[5-(5-methyl-1H-pyrrolo[2,3-b]pyridin-3-ylmethyl)-pyrimidin-2-yl]-amine]: the IC50 on BCR-NTRK3 BaF3 cells and at BCR-NTRK1 BaF3 cells was less than 100 nM throughout.
Turning to `CCOc1ccc(Nc2ncc(Cc3c[nH]c4ncc(C)cc34)cn2)cn1` [Compound P-3027, (6-Ethoxy-pyridin-3-yl)-[5-(5-methyl-1H-pyrrolo[2,3-b]pyridin-3-ylmethyl)-pyrimidin-2-yl]-amine], the IC50 at BCR-NTRK3 BaF3 cells and at BCR-NTRK1 BaF3 cells was less than 100 nM in each case.
With `Cc1cnc2[nH]cc(Cc3cnc(Nc4cc(-c5ccc(F)cc5)n[nH]4)nc3)c2c1` [Compound P-3028, [5-(4-Fluoro-phenyl)-2H-pyrazol-3-yl]-[5-(5-methyl-1H-pyrrolo[2,3-b]pyridin-3-ylmethyl)-pyrimidin-2-yl]-amine], the IC50 on BCR-NTRK3 BaF3 cells and at BCR-NTRK1 BaF3 cells was less than 100 nM in each case.
Take `Cc1cnc2[nH]cc(Cc3cnc(Nc4cc(C(C)(C)C)n[nH]4)nc3)c2c1` [Compound P-3029, (5-tert-Butyl-2H-pyrazol-3-yl)-[5-(5-methyl-1H-pyrrolo[2,3-b]pyridin-3-ylmethyl)-pyrimidin-2-yl]-amine]: the IC50 was less than 1000 nM at BCR-NTRK3 BaF3 cells and greater than 1000 nM at BCR-NTRK1 BaF3 cells.
For `Cc1cnc2[nH]cc(Cc3cnc(Nc4ccc(C(C)(C)C)cc4)nc3)c2c1` [Compound P-3030, (4-tert-Butyl-phenyl)-[5-(5-methyl-1H-pyrrolo[2,3-b]pyridin-3-ylmethyl)-pyrimidin-2-yl]-amine amine], the IC50 at BCR-NTRK3 BaF3 cells and at BCR-NTRK1 BaF3 cells was less than 10 nM each time.
Regarding `Cc1cnc2[nH]cc(Cc3cnc(Nc4ccc(C(O)(C(F)(F)F)C(F)(F)F)cc4)nc3)c2c1` [Compound P-3031, 1,1,1,3,3,3-Hexafluoro-2-{4-[5-(5-methyl-1H-pyrrolo[2,3-b]pyridin-3-ylmethyl)-pyrimidin-2-ylamino]-phenyl}-propan-2-ol], the IC50 at BCR-NTRK3 BaF3 cells and at BCR-NTRK1 BaF3 cells was less than 10 nM each time.
For the molecule `Cc1cnc2[nH]cc(Cc3cnc(Nc4cc(C5CC5)n[nH]4)nc3)c2c1` [Compound P-3032, (5-Cyclopropyl-2H-pyrazol-3-yl)-[5-(5-methyl-1H-pyrrolo[2,3-b]pyridin-3-ylmethyl)-pyrimidin-2-yl]-amine], the IC50 on BCR-NTRK3 BaF3 cells and on BCR-NTRK1 BaF3 cells was less than 1000 nM in each case.
`CSc1ccc(Nc2ncc(Cc3c[nH]c4ncc(C)cc34)cn2)cc1` [Compound P-3033, [5-(5-Methyl-1H-pyrrolo[2,3-b]pyridin-3-ylmethyl)-pyrimidin-2-yl]-(4-methylsulfanyl-phenyl)-amine]: the IC50 at BCR-NTRK3 BaF3 cells and at BCR-NTRK1 BaF3 cells was less than 100 nM in each case.
In the case of `Cc1cnc2[nH]cc(Cc3cnc(Nc4ccc(S(C)(=O)=O)cc4)nc3)c2c1` [Compound P-3034, (4-Methanesulfonyl-phenyl)-[5-(5-methyl-1H-pyrrolo[2,3-b]pyridin-3-ylmethyl)-pyrimidin-2-yl]-amine], the IC50 at BCR-NTRK3 BaF3 cells and on BCR-NTRK1 BaF3 cells was less than 100 nM throughout.
For `CCn1ccc(Nc2ncc(Cc3c[nH]c4ncc(C)cc34)cn2)n1` [Compound P-3035, (1-Ethyl-1H-pyrazol-3-yl)-[5-(5-methyl-1H-pyrrolo[2,3-b]pyridin-3-ylmethyl)-pyrimidin-2-yl]-amine], the IC50 on BCR-NTRK3 BaF3 cells is less than 100 nM; at BCR-NTRK1 BaF3 cells, less than 1000 nM.
As to `CCn1cc(Nc2ncc(Cc3c[nH]c4ncc(C)cc34)cn2)cn1` [Compound P-3036, (1-Ethyl-1H-pyrazol-4-yl)-[5-(5-methyl-1H-pyrrolo[2,3-b]pyridin-3-ylmethyl)-pyrimidin-2-yl]-amine], the IC50 at BCR-NTRK3 BaF3 cells and at BCR-NTRK1 BaF3 cells was less than 1000 nM each time.
Consider `Cc1cnc2[nH]cc(Cc3cnc(Nc4cc(C(F)(F)F)n[nH]4)nc3)c2c1` [Compound P-3037, [5-(5-Methyl-1H-pyrrolo[2,3-b]pyridin-3-ylmethyl)-pyrimidin-2-yl]-(5-trifluoromethyl-2H-pyrazol-3-yl)-amine], for which the IC50 at BCR-NTRK3 BaF3 cells and on BCR-NTRK1 BaF3 cells was greater than 1000 nM throughout.
In the case of `Cc1cnc2[nH]cc(Cc3cnc(Nc4cc(OC(C)C)n[nH]4)nc3)c2c1` [Compound P-3038, (5-Isopropoxy-2H-pyrazol-3-yl)-[5-(5-methyl-1H-pyrrolo[2,3-b]pyridin-3-ylmethyl)-pyrimidin-2-yl]-amine], the IC50 on BCR-NTRK3 BaF3 cells and at BCR-NTRK1 BaF3 cells was less than 1000 nM each time.
With `Cc1ccc(Nc2ccc(Cc3c[nH]c4ncc(Cl)cc34)c(F)n2)cn1` [Compound P-3042, [5-(5-Chloro-1H-pyrrolo[2,3-b]pyridin-3-ylmethyl)-6-fluoro-pyridin-2-yl]-(6-methyl-pyridin-3-yl)-amine], the IC50 at BCR-NTRK3 BaF3 cells is less than 100 nM; at BCR-NTRK1 BaF3 cells, less than 1000 nM.

For the origin of these results see patent publication US8901118B2, “Compounds and methods for kinase modulation, and indications therefor” (Plexxikon Inc., priority 2010, dated 2014).
